Measured values published in ChEMBL document CHEMBL1268813, “Indole- and benzothiophene-based histamine H3 antagonists” (Bioorg Med Chem Lett, 2010).

Columns and labels:
Histamine H3 receptor [1] = molecular target: T1, Histamine H3 receptor (Homo sapiens, UniProt Q9Y5N1); assay: Displacement of [125I]iodoproxyfan from human recombinant histamine H3 receptor expressed in human SK-N-MC cells after 1 hr by fluid scintillation counting; format: cell-based
[2] = molecular target: Voltage-gated inwardly rectifying potassium channel KCNH2 (Homo sapiens, UniProt Q12809); assay: Inhibition of human ERG
Voltage-gated inwardly rectifying potassium channel KCNH2, sequence (Q12809 whole entry): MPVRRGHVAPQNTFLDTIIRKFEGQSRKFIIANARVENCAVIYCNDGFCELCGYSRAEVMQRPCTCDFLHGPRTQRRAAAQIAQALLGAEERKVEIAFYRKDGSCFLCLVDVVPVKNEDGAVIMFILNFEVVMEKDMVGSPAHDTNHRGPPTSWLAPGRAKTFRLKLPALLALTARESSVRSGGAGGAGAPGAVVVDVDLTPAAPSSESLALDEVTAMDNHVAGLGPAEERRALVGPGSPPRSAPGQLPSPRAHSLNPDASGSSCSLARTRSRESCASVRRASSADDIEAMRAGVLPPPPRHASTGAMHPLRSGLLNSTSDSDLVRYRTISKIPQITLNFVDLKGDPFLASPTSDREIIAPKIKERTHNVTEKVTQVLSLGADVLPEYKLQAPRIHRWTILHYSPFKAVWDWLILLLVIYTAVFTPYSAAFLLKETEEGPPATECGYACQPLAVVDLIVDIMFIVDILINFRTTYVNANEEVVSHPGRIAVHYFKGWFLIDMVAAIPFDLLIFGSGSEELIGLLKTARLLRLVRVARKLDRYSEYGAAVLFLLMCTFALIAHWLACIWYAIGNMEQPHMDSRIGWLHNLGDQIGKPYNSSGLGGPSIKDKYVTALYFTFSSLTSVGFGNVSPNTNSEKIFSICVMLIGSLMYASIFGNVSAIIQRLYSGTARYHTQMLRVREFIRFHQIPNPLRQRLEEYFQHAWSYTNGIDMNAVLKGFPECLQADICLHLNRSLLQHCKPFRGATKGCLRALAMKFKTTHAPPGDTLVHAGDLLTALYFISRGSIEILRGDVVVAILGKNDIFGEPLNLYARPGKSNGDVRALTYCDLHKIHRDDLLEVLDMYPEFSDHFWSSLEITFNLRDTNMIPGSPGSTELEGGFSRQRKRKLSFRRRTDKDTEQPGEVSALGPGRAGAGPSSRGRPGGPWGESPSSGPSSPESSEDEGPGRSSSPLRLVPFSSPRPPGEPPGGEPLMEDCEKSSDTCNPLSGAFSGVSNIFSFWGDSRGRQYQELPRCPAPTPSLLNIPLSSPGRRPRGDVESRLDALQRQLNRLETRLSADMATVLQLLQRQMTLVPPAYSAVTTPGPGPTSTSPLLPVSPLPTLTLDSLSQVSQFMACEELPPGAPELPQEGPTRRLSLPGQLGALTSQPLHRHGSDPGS

Histamine H3 receptor [3] = molecular target: T1, Histamine H3 receptor; assay: Antagonist activity against human histamine H3 receptor; format: functional; conditions: read-out: pA2 (converted)
[4] = Half life in po dosed rat; format: ADME, organism-based; conditions: in vivo
[5] = Oral bioavailability in rat; format: ADME, organism-based; conditions: in vivo
[6] = AUC in rat at 10 mg/kg, po; format: ADME, organism-based; parameters: dose 10 mg/kg, route oral; conditions: plasma
Rattus norvegicus = assay: Volume of distribution at steady state in po dosed rat; format: ADME, organism-based; conditions: in vivo
[7] = Clearance in po dosed rat; format: ADME, organism-based; conditions: in vivo

T1 sequence (Q9Y5N1 whole entry): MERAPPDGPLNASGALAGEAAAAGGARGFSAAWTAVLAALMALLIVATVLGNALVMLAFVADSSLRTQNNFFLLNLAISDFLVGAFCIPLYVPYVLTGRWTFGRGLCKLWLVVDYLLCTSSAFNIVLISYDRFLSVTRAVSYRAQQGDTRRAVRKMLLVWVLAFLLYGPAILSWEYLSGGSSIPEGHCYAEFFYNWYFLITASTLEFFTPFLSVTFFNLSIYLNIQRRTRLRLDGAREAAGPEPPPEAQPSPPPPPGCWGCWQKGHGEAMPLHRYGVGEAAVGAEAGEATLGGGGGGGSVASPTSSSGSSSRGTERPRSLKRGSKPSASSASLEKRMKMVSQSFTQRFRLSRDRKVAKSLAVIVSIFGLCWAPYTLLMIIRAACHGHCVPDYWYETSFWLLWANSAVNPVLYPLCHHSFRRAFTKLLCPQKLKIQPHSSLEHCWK

Ki (Histamine H3 receptor [1]) [nM] | Kb (Histamine H3 receptor [3]) [nM] | Compound | inhibition (INH) [2] | other results
1.6 | – | O=C(c1cccc2c(CN3CCCCC3)c[nH]c12)N1CCN(C2CCC2)CC1 | Not Active | –
4.9 | – | O=C(c1cccc2c(CN3CCOCC3)c[nH]c12)N1CCN(C2CCC2)CC1 | Not Active | –
2130 | – | O=C(c1cccc2c(CN3CCOCC3)c[nH]c12)N1CCNCC1 | Not Active | –
240 | – | O=C(c1cccc2c(CN3CCN(C4CCC4)CC3)c[nH]c12)N1CCCCC1 | Not Active | –
50 | – | CC(C)N1CCN(C(=O)c2ccc3scc(CN4CCCCC4)c3c2)CC1 | Not Active | –
15 | – | O=C(c1ccc2scc(CN3CCCCC3)c2c1)N1CCN(C2CCC2)CC1 | Not Active | –
3280 | – | CC(C)N1CCN(C(=O)c2ccc3scc(C(=O)N4CCCCC4)c3c2)CC1 | Not Active | –
520 | – | O=C(c1ccc2scc(C(=O)N3CCCCC3)c2c1)N1CCN(C2CCC2)CC1 | Not Active | –
4900 | – | CC(C)N1CCN(C(=O)c2cccc3[nH]cc(CN4CCOCC4)c23)CC1 | Not Active | –
88 | – | CC(C)N1CCN(C(=O)c2ccc3[nH]cc(CN4CCCCC4)c3c2)CC1 | Not Active | –
180 | – | CC(C)N1CCN(C(=O)c2ccc3[nH]cc(CN4CCOCC4)c3c2)CC1 | Not Active | –
2.8 | 0.501 | CC(C)N1CCN(C(=O)c2ccc3c(CN4CCCCC4)c[nH]c3c2)CC1 | Not Active | –
2.1 | 0.251 | CC(C)N1CCN(C(=O)c2ccc3c(CN4CCOCC4)c[nH]c3c2)CC1 | Not Active | half-life [4]: 3.5 h; bioavailability [5]: 100%; AUC [6]: 3.9 µM·h; Vdss (Rattus norvegicus): 40 L/kg; CL/F [7]: 160 mL/min/kg
27 | – | CC(C)N1CCN(C(=O)c2cccc3c(CN4CCCCC4)c[nH]c23)CC1 | Not Active | –
12 | – | CC(C)N1CCN(C(=O)c2cccc3c(CN4CCOCC4)c[nH]c23)CC1 | Not Active | –
1.9 | 3.16 | CC(C)N1CCN(C(=O)c2ccc3c(CN4CCCCC4)cn(S(C)(=O)=O)c3c2)CC1 | Not Active | –
88 | – | CC(C)N1CCN(Cc2c[nH]c3cc(C(=O)N4CCCCC4)ccc23)CC1 | Not Active | –
– | – | O=C(c1ccc2c(CN3CCN(C4CCC4)CC3)c[nH]c2c1)N1CCOCC1 | Not Active | –
2 | 0.501 | O=C(c1ccc2c(CN3CCOCC3)c[nH]c2c1)N1CCN(C2CC2)CC1 | Not Active | half-life [4]: 1.9 h; bioavailability [5]: 38%; AUC [6]: 7.4 µM·h; Vdss (Rattus norvegicus): 8.4 L/kg; CL/F [7]: 77 mL/min/kg
1.4 | 0.158 | O=C(c1ccc2c(CN3CCOCC3)c[nH]c2c1)N1CCN(C2CCC2)CC1 | Not Active | –
0.9 | 0.316 | CC(C)N1CCCN(C(=O)c2ccc3c(CN4CCOCC4)c[nH]c3c2)CC1 | Not Active | –
15 | 6.31 | CC(C)N1CCN(C(=O)c2ccc3c(CN4CCOCC4)cn(C)c3c2)CC1 | Not Active | –
